# According to patent US9156811B2 (priority 2008, dated 2015):
# Counter-ions that a name gives are not always drawn.
# Tested on: Trypanosome (T. brucei brucei)
# Experiment: In-vitro antitrypanosomal efficacy assay (cell growth, resazurin)
# Assay type: cell-based
# Conditions: not given
row,Compound,ED50 (μM) T. brucei [µM]
1,"Cc1nn(C)c(C)c1N(C(F)F)[S+](=O)([O-])c1c(Cl)cc(CCCC2CCNCC2)cc1Cl [DDD100096, 2,6-Dichloro-N-(difluoromethyl)-4-(3-(piperidin-4-yl)propyl)-N-(1,3,5-trimethyl-4H-pyrazol-4-yl)benzenesulfonamide hydrochloride salt]",0.003

# Same assay, conditions: T. brucei brucei, blood stream form, variant 221
row,Compound,ED50 (μM) T. brucei [µM]
1,Cc1ccc(-c2ccc([S+](=O)([O-])Nc3c(CC(C)C)nn(C)c3C)cc2)cc1CN(C)C [DDD99824],0.014
2,Cc1nn(C)c(C)c1N(C)[S+](=O)([O-])c1ccc(CCCCCCCN(C)C)cc1 [DDD99825],0.054
3,Cc1c(N[S+](=O)([O-])c2ccc(-c3cc(CN(C)C)ccc3Cl)cc2)c(CC(C)C)nn1C [DDD99826],0.104
4,Cc1nn(C)c(C)c1N[S+](=O)([O-])c1ccc(CCCCC2CCN(C)CC2)cc1 [DDD99830],0.020
5,Cc1c(N[S+](=O)([O-])c2ccc(-c3ccc(F)c(CN(C)C)c3)cc2)c(CC(C)C)nn1C [DDD99832],0.010
6,Cc1nn(C)c(C)c1N(C)[S+](=O)([O-])c1c(Cl)cc(CCCCCCn2ccnc2)cc1Cl [DDD99833],0.018
7,Cc1nn(C)c(C)c1N(C)[S+](=O)([O-])c1c(Cl)cc(CCCCCn2ccnc2)cc1Cl [DDD99834],0.225
8,CCc1nn(C)c(CC)c1N(C)[S+](=O)([O-])c1c(Cl)cc(CCCN2CCN(C)CC2)cc1Cl [DDD99836],0.013
9,Cc1nn(C)c(C)c1N(C)[S+](=O)([O-])c1ccc(CCCCCCCn2ccnc2)cc1 [DDD99838],>1
10,Cc1nn(C)c(C)c1N(C(F)F)[S+](=O)([O-])c1c(Cl)cc(CCCN2CCN(C)CC2)cc1Cl [DDD100086],0.012
11,CCN(c1c(C)nn(C)c1C)[S+](=O)([O-])c1c(Cl)cc(CCCC2CCN(C)CC2)cc1Cl [DDD100088],0.003
12,CCN(c1c(C)nn(C)c1C)[S+](=O)([O-])c1c(Cl)cc(CCCC2CCNCC2)cc1Cl [DDD100091],0.004
13,Cc1nn(C)c(C)c1N(C)[S+](=O)([O-])c1ccc(CCCCCCCCN(C)C)cc1 [DDD100093],0.106
14,Cc1c(N[S+](=O)([O-])c2ccc(-c3ccc(OC(F)(F)F)c(CN(C)C)c3)cc2)c(CC(C)C)nn1C [DDD100140],>1
15,Cc1nn(C)c(C)c1N(CC(F)F)[S+](=O)([O-])c1c(Cl)cc(CCCN2CCCNCC2)cc1Cl [DDD100142],0.014
16,Cc1c(N[S+](=O)([O-])c2ccc(-c3ccc(Cl)c(CN(C)C)c3)cc2)c(CC(C)C)nn1C [DDD100143],0.017
17,Cc1nn(C)c(C)c1N(CC(F)F)[S+](=O)([O-])c1c(Cl)cc(CCCC2CCNCC2)cc1Cl [DDD100145],0.02
18,Cc1nn(C)c(C)c1N(CC(F)(F)F)[S+](=O)([O-])c1c(Cl)cc(CCCC2CCNCC2)cc1Cl [DDD100151],0.034
19,Cc1nn(C)c(C)c1N(CC(F)(F)F)[S+](=O)([O-])c1c(Cl)cc(CCCN2CCCN(C)CC2)cc1Cl [DDD100157],0.014
20,Cc1nn(C)c(C)c1N(CC(F)F)[S+](=O)([O-])c1c(Cl)cc(CCCCC2CCN(C)CC2)cc1Cl [DDD100159],0.009
21,Cc1nn(C)c(C)c1N(CC(F)F)[S+](=O)([O-])c1c(Cl)cc(CCCC2CCN(C)CC2)cc1Cl [DDD100160],0.013
22,Cc1nn(C)c(C)c1N(CC(F)F)[S+](=O)([O-])c1c(Cl)cc(CCCOC2CCN(C)CC2)cc1Cl [DDD100161],0.006
23,Cc1nn(C)c(C)c1N(C(F)F)[S+](=O)([O-])c1c(Cl)cc(CCCN2CCCN(C)CC2)cc1Cl [DDD100164],0.001
24,Cc1nn(C)c(C)c1N(CC(F)(F)F)[S+](=O)([O-])c1c(Cl)cc(CCCCC2CCN(C)CC2)cc1Cl [DDD100165],0.020
25,Cc1nn(C)c(C)c1N(C(F)F)[S+](=O)([O-])c1c(Cl)cc(CCCN2CCCNCC2)cc1Cl [DDD100166],0.002
26,Cc1nn(C)c(C)c1N(CC(F)(F)F)[S+](=O)([O-])c1c(Cl)cc(CCCCC2CCNCC2)cc1Cl [DDD100167],0.014
27,Cc1c(N[S+](=O)([O-])c2ccc(-c3cccc(CN4[C@@H](C)CC[C@@H]4C)c3)cc2)c(CC(C)C)nn1C [DDD100790],0.269
28,CCc1nccn1CCCCCCc1cc(Cl)c([S+](=O)([O-])N(c2c(C)nn(C)c2C)C(F)F)c(Cl)c1 [DDD100794],0.160
29,Cc1nn(C)c(C)c1N(C(F)F)[S+](=O)([O-])c1c(Cl)cc(CCCCCCn2ccnc2C)cc1Cl [DDD100795],0.005
30,Cc1nn(C)c(C)c1N(CC(F)F)[S+](=O)([O-])c1c(Cl)cc(CCCN2CCCN(C)CC2)cc1Cl [DDD100802],0.004

# Same assay, conditions: T. brucei cell growth
row,Compound,ED50 (μM) T. brucei [µM]
1,CCN(CC)Cc1cccc(-c2ccc([S+](=O)([O-])N(C)c3c(CC(C)C)nn(C)c3C)cc2)c1 [DDD88643],0.49
2,Cc1nn(C)c(C)c1N(C)[S+](=O)([O-])c1c(Cl)cc(CCCN2CCN(C)CC2)cc1Cl [DDD88644],0.012
3,Cc1nn(C)c(C)c1N(CC(F)(F)F)[S+](=O)([O-])c1ccc(-c2ccnc(N3CCNCC3)c2)cc1 [DDD88645],0.021
4,CCN(c1c(C)nn(C)c1C)[S+](=O)([O-])c1c(Cl)cc(-c2ccnc(N3CCNCC3)c2)cc1Cl [DDD88646],0.002
5,Cc1nn(C)c(C)c1N(C)[S+](=O)([O-])c1c(Cl)cc(CCCC2CCNCC2)cc1Cl [DDD90022],0.002
6,Cc1nn(C)c(C)c1N(C)[S+](=O)([O-])c1ccc(CCCC2CCN(C)CC2)cc1 [DDD90023],0.20
7,Cc1nn(C)c(C)c1N(CC(F)(F)F)[S+](=O)([O-])c1ccc(-c2cccc(CN3CCN(C)CC3)c2)cc1 [DDD90057],0.73
8,Cc1nn(C)c(C)c1N(C)[S+](=O)([O-])c1ccc(-c2cccc(CC3CCN(C)CC3)c2)cc1 [DDD90091],0.063
9,Cc1nn(C)c(C)c1N(C)[S+](=O)([O-])c1ccc(-c2cccc(CC3CCNCC3)c2)cc1 [DDD90098],0.060
10,Cc1nn(C)c(C)c1N(CC(F)F)[S+](=O)([O-])c1ccc(-c2ccnc(N3CCNCC3)c2)cc1 [DDD90111],0.005
11,Cc1nn(C)c(C)c1N(C)[S+](=O)([O-])c1ccc(CCCC2CCNCC2)cc1 [DDD90112],0.270
12,Cc1nn(C)c(C)c1N(C)[S+](=O)([O-])c1c(Cl)cc(-c2cccc(CN3CCN(C)CC3)c2)cc1Cl [DDD90118],0.015
13,Cc1c(N(C)[S+](=O)([O-])c2ccc(CCCC3CCN(C)CC3)cc2)c(CC(C)C)nn1C [DDD90142],0.168
14,Cc1c(N[S+](=O)([O-])c2ccc(CCCC3CCNCC3)cc2)c(CC(C)C)nn1C [DDD90144],0.034
15,Cc1nn(C)c(C)c1N(C)[S+](=O)([O-])c1ccc(CCCCCN(C)C)cc1 [DDD90145],1.00
16,Cc1nn(C)c(C)c1N(C)[S+](=O)([O-])c1c(Cl)cc(CCCC2CCN(C)CC2)cc1Cl [DDD90146],0.002

row,Compound,ED50 (μM) T. brucei [µM]
1,CCN(c1c(C)nn(C)c1C)[S+](=O)([O-])c1c(Cl)cc(CCCN2CCN(C)CC2)cc1Cl [DDD90154],0.023
2,Cc1c(N[S+](=O)([O-])c2ccc(-c3cccc(CN4CCCC4)c3)cc2)c(CC(C)C)nn1C [DDD99739],0.058
3,CNCc1cccc(-c2ccc([S+](=O)([O-])Nc3c(CC(C)C)nn(C)c3C)cc2)c1 [DDD99748],0.036
4,Cc1nn(C)c(C)c1N(C)[S+](=O)([O-])c1c(Cl)cc(CCCN2CC(C)NC(C)C2)cc1Cl (centres unmarked) [DDD99751],0.021
5,Cc1nn(C)c(C)c1N(C)[S+](=O)([O-])c1ccc(CCCCCCN(C)C)cc1 [DDD99753],0.406
6,Cc1nn(C)c(C)c1N(C)[S+](=O)([O-])c1c(Cl)cc(CCCN2CCCNCC2)cc1Cl [DDD99755],0.002
7,Cc1c(N[S+](=O)([O-])c2ccc(-c3cccc(C4CCNCC4)c3)cc2)c(CC(C)C)nn1C [DDD099757],0.061
8,Cc1nn(C)c(C)c1N[S+](=O)([O-])c1ccc(CCCC2CCNCC2)cc1 [DDD99758],0.110
9,Cc1nn(C)c(C)c1N[S+](=O)([O-])c1c(Cl)cc(CCCC2CCNCC2)cc1Cl [DDD99759],0.003
10,Cc1nn(C)c(C)c1N[S+](=O)([O-])c1ccc(CCCCC2CCNCC2)cc1 [DDD99760],0.010
11,Cc1nn(C)c(C)c1NS(=O)(=O)c1ccc(C#CCCC2CCN(C)CC2)cc1 [DDD99761],0.240
12,Cc1c(N(C)[S+](=O)([O-])c2ccc(-c3cccc(C4CCNCC4)c3)cc2)c(CC(C)C)nn1C [DDD99815],0.123
13,Cc1c(N[S+](=O)([O-])c2ccc(-c3cccc(CN(C)C)c3F)cc2)c(CC(C)C)nn1C [DDD99816],0.031
14,Cc1cc(CCCN2CCN(C)CC2)cc(C)c1[S+](=O)([O-])N(C)c1c(C)nn(C)c1C [DDD99818],0.047
15,Cc1nn(C)c(C)c1N[S+](=O)([O-])c1ccc(CCCOC2CCN(C)CC2)cc1 [DDD99820],0.020
